Results on three compounds are retold here after patent publication US9089540B2, “Method for determination of sensitivity to anti-cancer agent” (KEIO UNIVERSITY, priority 2008, dated 2015).

Data set [1] concerns 5 kinds of human colorectal cancer cell lines (COLO320, HCT-15, HT-29, LS174T, HCT116). The data set can be described thus: Evaluation of SN-38 sensitivity, MTS assay (cell survival rate). The data set is classed as cell-based. As to conditions: 72 hours exposure, range over 5 cell lines, read-out: IC50 value of each cell line (SN-38 sensitivity). As to the method:
After exposure of each cell line to 0 to 1,000 μmol/Loxaliplatin for 48 hours, a cell survival rate was evaluated with MTS assay (CellTiter96™ AQueous One Solution Cell Proliferation Assay, Promega). Then, IC50 value (a concentration at which the number of cells is suppressed to 50% with respect to that in an oxaliplatin-untreated well) was calculated and used as an oxaliplatin sensitivity in each cell line. The evaluation of the sensitivity was performed four times with cells having different passage numbers and the average value and the standard deviation value thereof were calculated.
As cells, 5 kinds of human colorectal cancer cell lines (COLO320, HCT-15, HT-29, LS174T, HCT116 (HCT116 was obtained from ECACC)), and as a drug, an irinotecan active metabolite (SN-38, obtained from Yakult Honsha, Co., Ltd.) were used. The cell survival rate after exposure to 0 to 1,000 nmol/L SN-38 for 72 hours was evaluated by MTS assay in the same manner as in Example 1 and the IC50 value was calculated. […] For the analysis, ProteinChip™ Reader (Model PCS4000 Personal Edition, Bio-Rad) was used, and the analysis was performed under the following conditions: mass range, 0 to 70,000 daltons; focus mass, 11,000 daltons; energy, 3,000 nJ; and 265 shots in total per sample. […]
(In general: Tetrazolium dyes change colour on reduction, which living cells bring about.)

Data set [2] can be described thus: Clinical blood exposure to SN-38 after irinotecan administration, calculated from interview form parameters. The data set is classed as in vivo, human. As to the method:
Based on the pharmacokinetic parameters of SN-38 (Campto™, interview form), the area under the curve of SN-38 blood concentration (AUCSN-38) obtained after the first irinotecan administration of the colon cancer therapy regimen (180 mg/m^2/day) was calculated to be 1,449 nmol·h/L. The concentration of SN38 required to obtain the same exposure amount through 72-hour exposure employed in this Example was calculated to be 20 nM. Therefore, a cut off value was set to 20 nM for the IC50 value of each cancer cell line with respect to SN-38 and the cancer cell lines were classified into two groups of a high sensitivity group and a low sensitivity group. As a result, there was a significant increase in the peak intensity of the peak detected at m/z of 11,000 to 11,100 in the low sensitivity group (FIG. 6).

For data set [3] the following is noted: human, in vivo, 100 mg/m2.
For data set [4] the following is noted: roughly corresponding to the cut off value; cited from earlier work.

The structures appear in SMILES notation.

What is called IC50 is the concentration that gives 50% inhibition. In general, Cmax refers to the peak of the concentration-time curve.

Regarding `CCc1c2c(nc3ccc(O)cc13)-c1cc3c(c(=O)n1C2)COC(=O)[C@]3(O)CC` [SN-38], the IC50 in data set [1] is 3.39 to 33.7 nM. Also, in data set [2] (AUC equivalent over 72-hour exposure), the “concentration of SN38 required to obtain the same exposure amount through 72-hour exposure” value is 0.02 µM. Besides, in data set [2] (after first irinotecan administration of colon cancer regimen, 180 mg/m^2/day), the “area under the curve of SN-38 blood concentration (AUCSN-38)” value is 1,449 nmol·h/L.

`N.N.[Cl][Pt][Cl]` [cisplatin, cis-Diammineplatinum(II) dichrolide] came in with a Cmax in data set [3] of 9.5 to 11 µM.

On to `O=C1[O][Pt]2([NH][C@@H]3CCCC[C@H]3[NH]2)[O]C1=O` [oxaliplatin, (SP-4-2)-[(1R,2R)-cyclohexane-1,2-diamine-κN,κN′][ethanedioato (2-)-κO^1,κO^2]platinum], for which the “peak blood concentration at the time of clinical use” value in data set [4] was roughly 5.0 µM.
